Measurements taken from US5550139A, “Serine protease inhibitors” (The Wichita State University, priority 1994, dated 1996).

Assays:
cathepsin G (Cath G) = biological target: T1, cathepsin G (Cath G) (Homo sapiens, UniProt P08311); test: Inactivation of human leukocyte cathepsin G (kobs/[I]); format: biochemical; conditions: for kinact/KI: pH 7.5
T1 construct: purchased Athens Research and Technology, Athens, Ga
T1 sequence (P08311 21-244 limits assumed): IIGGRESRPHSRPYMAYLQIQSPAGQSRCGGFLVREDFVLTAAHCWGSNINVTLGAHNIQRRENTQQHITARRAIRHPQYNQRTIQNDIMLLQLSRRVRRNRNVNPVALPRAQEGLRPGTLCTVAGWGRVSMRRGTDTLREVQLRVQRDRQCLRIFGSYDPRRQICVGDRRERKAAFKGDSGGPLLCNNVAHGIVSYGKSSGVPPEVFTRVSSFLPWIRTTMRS
Experimental: Human leukocyte cathepsin G (1.33 uM) is incubated with compound 8 (133 uM) (a) or compound 10 (13.3 uM) (b) in 0.1M HEPES buffer, pH 7.5, and 10% DMSO. Aliquots were withdrawn at different time intervals and assayed for enzymatic activity using methoxysuccinyl Ala-Ala-Pro-Phe p-nitroanilide.
Human leukocyte cathepsin G (1.48 μM was incubated with inhibitor 5A (1.48 μM in 0.1M HEPES buffer, pH 7.5, and 1% DMSO. Aliquots were withdrawn at different time intervals and assayed for enzymatic activity using methoxysuccinyl Ala-Ala-Pro-Phe p-nitroanilide.
(§1) An in vitro assay can be used to screen compounds of the invention for the ability to reduce or inhibit serine proteinase activity. The human leukocyte elastase (HLE), cathepsin G (Cath G), and proteinase-3 assays have each been described (Groutas et al., J. Med. Chem. 32:1607-1611, 1989; Groutas et al., Arch. Biochem. Biophys. 294:144-146, 1992; Kao et al., J. Clin. Invest. 82:1963-1973, 1988, each incorporated by reference herein). The pseudo first-order inactivation rate constants (kobs) were obtained from plots of ln(vt /vo) vs t, and expressed in terms of the apparent second-order inactivation rate constant, kobs /[I] M^-1 s^-1 (Tables 1-7). Tables 1-7 disclose the activity of preferred compounds of the invention as inhibitors of HLE and Cath G. Table 7 discloses the activity of Compounds 4A (C) and 3E (D) as inhibitors of Proteinase-3 activity. Compounds (A) and (B) have been disclosed previously (Groutas et al., Bioorganic and Med. Chem. 1(4):273-277, 1993; Groutas et al., J. Med. Chem. 36:3178, 1993).
(§2) Human leukocyte cathepsin G was obtained from Athens Research and Technology, Athens, Ga. Methoxysuccinyl Ala-Ala-Pro-Val p-nitroanilide and methoxysuccinyl Ala-Ala-Pro-Phe p-nitroanilide were purchased from Sigma Chemicals Co., St. Louis, Mo. Baker-analyzed 60-200 mesh silica gel was used for flash chromatography.

[1] = biological target: T2, human leukocyte elastase (HLE) (Homo sapiens, UniProt P08246); test: Inactivation of human leukocyte elastase (kobs/[I]); format: biochemical
T2 construct: purchased Elastin Products Co., Owensville, Mo
T2 sequence (P08246 30-247 limits assumed): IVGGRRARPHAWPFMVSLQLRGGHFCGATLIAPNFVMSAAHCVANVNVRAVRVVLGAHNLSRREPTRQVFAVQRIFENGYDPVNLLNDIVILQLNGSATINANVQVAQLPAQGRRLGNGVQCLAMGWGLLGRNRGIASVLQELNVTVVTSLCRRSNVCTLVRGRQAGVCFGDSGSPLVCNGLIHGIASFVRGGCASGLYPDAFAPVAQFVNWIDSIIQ
Description: as §1
XII. Materials: Human leukocyte elastase was purchased from Elastin Products Co., Owensville, Mo.
as §2

O=C1[C@H](Cc2ccccc2)NS(=O)(=O)N1CF [Compound 1A, (S)-4-Benzyl-2-fluoromethyl-3-oxo-1,2,5-thiadiazolidine 1.1-dioxide]
kinact/KI (cathepsin G (Cath G); Table 2): 600 M⁻¹ s⁻¹

O=C(N[C@@H](Cc1ccccc1)C(=O)OCN1C(=O)C(Cc2ccccc2)CS1(=O)=O)OCc1ccccc1 (stereo partly drawn) [Compound 1B]
kinact/KI ([1]; Table 3): 110 M⁻¹ s⁻¹ | kinact/KI (cathepsin G (Cath G); Table 3): 20 M⁻¹ s⁻¹

O=C(/C=C/c1ccccc1)OCN1C(=O)C(Cc2ccccc2)CS1(=O)=O (stereo not drawn) [Compound 1C]
kinact/KI ([1]; Table 4): 280 M⁻¹ s⁻¹ | kinact/KI (cathepsin G (Cath G); Table 4): 3220 M⁻¹ s⁻¹

O=C1C(Cc2ccccc2)CS(=O)(=O)N1CF (stereo not drawn) [Compound 1D, 4-benzyl-2-(fluoromethyl)isothiazolidin-3-one 1,1 dioxide]
kinact/KI ([1]; Table 5): 160 M⁻¹ s⁻¹ | kinact/KI (cathepsin G (Cath G); Table 5): 2700 M⁻¹ s⁻¹

O=C1[C@H](Cc2ccccc2)N(S(=O)(=O)c2ccccc2)S(=O)(=O)N1CS(=O)(=O)c1ccccc1 [Compound 1E]
kinact/KI (cathepsin G (Cath G); Table 6): 830 M⁻¹ s⁻¹

CC(C)Cc1ccc(C(C)C(=O)OCN2C(=O)C(Cc3ccccc3)CS2(=O)=O)cc1 (stereo not drawn) [Compound 1]
kinact/KI ([1]; Table 1A): 160 M⁻¹ s⁻¹ | kinact/KI (cathepsin G (Cath G); Table 1A): 240 M⁻¹ s⁻¹

CN1[C@@H](Cc2ccccc2)C(=O)N(CF)S1(=O)=O [Compound 2A, (S)-4-Benzyl-2-fluoromethyl-5-methyl-3-oxo-1,2,5-thiadiazolidine 1.1-dioxide]
kinact/KI ([1]; Table 2): 1320 M⁻¹ s⁻¹ | kinact/KI (cathepsin G (Cath G); Table 2): 750 M⁻¹ s⁻¹

CC(C)(C)OC(=O)N[C@@H](Cc1ccccc1)C(=O)OCN1C(=O)C(Cc2ccccc2)CS1(=O)=O (stereo partly drawn) [Compound 2B]
kinact/KI ([1]; Table 3): 680 M⁻¹ s⁻¹ | kinact/KI (cathepsin G (Cath G); Table 3): 10 M⁻¹ s⁻¹

O=C(CCc1ccccc1)OCN1C(=O)C(Cc2ccccc2)CS1(=O)=O (stereo not drawn) [Compound 2C]
kinact/KI ([1]; Table 4): 680 M⁻¹ s⁻¹ | kinact/KI (cathepsin G (Cath G); Table 4): 640 M⁻¹ s⁻¹

O=C1C(Cc2ccccc2)CS(=O)(=O)N1CCl (stereo not drawn) [Compound 2D]
kinact/KI ([1]; Table 5): 670 M⁻¹ s⁻¹ | kinact/KI (cathepsin G (Cath G); Table 5): 2040 M⁻¹ s⁻¹

CC(C)C[C@@H]1NS(=O)(=O)N(CS(=O)(=O)c2ccccc2)C1=O [Compound 2E]
kinact/KI ([1]; Table 6): 190 M⁻¹ s⁻¹

O=C(Cc1ccccc1Nc1c(Cl)cccc1Cl)OCN1C(=O)C(Cc2ccccc2)CS1(=O)=O (stereo not drawn) [Compound 2]
kinact/KI ([1]; Table 1A): 30 M⁻¹ s⁻¹ | kinact/KI (cathepsin G (Cath G); Table 1A): 80 M⁻¹ s⁻¹

O=C1[C@H](Cc2ccccc2)N(Cc2ccccc2)S(=O)(=O)N1CF [Compound 3A, (S)-4.5-Dibenzyl-2-fluoromethyl-3-oxo-1,2,5-thiadiazolidine 1.1-dioxide]
kinact/KI ([1]; Table 2): 930 M⁻¹ s⁻¹

O=C(N[C@H](Cc1ccccc1)C(=O)OCN1C(=O)C(Cc2ccccc2)CS1(=O)=O)OCc1ccccc1 (stereo partly drawn) [Compound 3B]
kinact/KI ([1]; Table 3): 2300 M⁻¹ s⁻¹ | kinact/KI (cathepsin G (Cath G); Table 3): 160 M⁻¹ s⁻¹

O=C(CSc1ccccc1)OCN1C(=O)C(Cc2ccccc2)CS1(=O)=O (stereo not drawn) [Compound 3C]
kinact/KI ([1]; Table 4): 1020 M⁻¹ s⁻¹ | kinact/KI (cathepsin G (Cath G); Table 4): 3340 M⁻¹ s⁻¹

CC(C(=O)OCN1C(=O)C(Cc2ccccc2)CS1(=O)=O)c1cccc(C(=O)c2ccccc2)c1 (stereo not drawn) [Compound 3]
kinact/KI ([1]; Table 1A): 210 M⁻¹ s⁻¹ | kinact/KI (cathepsin G (Cath G); Table 1A): 290 M⁻¹ s⁻¹

CC(C)(C)OC(=O)N[C@H](Cc1ccccc1)C(=O)OCN1C(=O)C(Cc2ccccc2)CS1(=O)=O (stereo partly drawn) [Compound 4B]
kinact/KI ([1]; Table 3): 1140 M⁻¹ s⁻¹ | kinact/KI (cathepsin G (Cath G); Table 3): 260 M⁻¹ s⁻¹

O=C(C[S+]([O-])c1ccccc1)OCN1C(=O)C(Cc2ccccc2)CS1(=O)=O (stereo not drawn) [Compound 4C]
kinact/KI ([1]; Table 4): 320 M⁻¹ s⁻¹ | kinact/KI (cathepsin G (Cath G); Table 4): 770 M⁻¹ s⁻¹

CC(C)C[C@H]1C(=O)N(CS(=O)(=O)c2ccccc2)S(=O)(=O)N1CC(=O)OCc1ccccc1 [Compound 4E]
kinact/KI ([1]; Table 6): 1710 M⁻¹ s⁻¹

CC(=O)Oc1ccccc1C(=O)OCN1C(=O)C(Cc2ccccc2)CS1(=O)=O (stereo not drawn) [Compound 4]
kinact/KI ([1]; Table 1A): 830 M⁻¹ s⁻¹ | kinact/KI (cathepsin G (Cath G); Table 1A): 3000 M⁻¹ s⁻¹

O=C(CN1[C@@H](Cc2ccccc2)C(=O)N(CF)S1(=O)=O)OCc1ccccc1 [Compound 5A, (S) -Benzyl-5(benzyloxycarbonylmethyl)-2-fluoromethyl-3-oxo-1,2,5-thiadiazolidine 1.1-dioxide]
kinact/KI ([1]; Table 2): 810 M⁻¹ s⁻¹ | time-dependent loss of serine protease activity (cathepsin G (Cath G); FIG. 6, Cath G 1.48 μM, inhibitor 1.48 μM, 0.1M HEPES pH 7.5, 1% DMSO): time-dependent loss of serine protease activity

O=C(OCN1C(=O)C(Cc2ccccc2)CS1(=O)=O)[C@@H]1CCCN1C(=O)OCc1ccccc1 (stereo partly drawn) [Compound 5B]
kinact/KI ([1]; Table 3): 220 M⁻¹ s⁻¹ | kinact/KI (cathepsin G (Cath G); Table 3): 7700 M⁻¹ s⁻¹
